# Measured values taken from US11723361B2, “Antimicrobial composition having efficacy against endospores” (Next Science IP Holdings Pty Ltd, priority 2015, dated 2023).
# Test: Peracetic acid titrations (pH)
# Type: physicochemical
# Protocol: Two peracetic acid solutions were prepared by adding distilled water to a flask containing peracetic acid. The concentration of one of the solutions was 5% (w/v) while that of the other was 10% (w/v). The calculated effective solute concentrations for these solutions were 1.97 and 3.95 Osm/L, respectively.
# To a 50 mL beaker was added 20 mL distilled water. A cleaned, rinsed and dried probe from a calibrated, temperature compensating pH meter was lowered into the beaker. Sequential aliquots of the peracetic acid solution then were added to the beaker, with pH readings after each. The titrations were performed at room temperature.
structure (smiles),measurement,setting,value
"CC(=O)OO [Peracetic acid, peracetic acid]",pH of water after addition,1 mL (5% by volume) of either 5% or 10% (w/v) solution,below 2
same,pH,"5% (w/v) solution, 0.25 mL added to 20 mL distilled water, room temperature",2.42
same,pH,"5% (w/v) solution, 0.50 mL added to 20 mL distilled water, room temperature",2.17
same,pH,"5% (w/v) solution, 0.75 mL added to 20 mL distilled water, room temperature",2.00
same,pH,"5% (w/v) solution, 1.00 mL added to 20 mL distilled water, room temperature",1.89
same,pH,"5% (w/v) solution, 1.25 mL added to 20 mL distilled water, room temperature",1.80
same,pH,"5% (w/v) solution, 1.50 mL added to 20 mL distilled water, room temperature",1.74
same,pH,"5% (w/v) solution, 1.75 mL added to 20 mL distilled water, room temperature",1.68
same,pH,"5% (w/v) solution, 2.00 mL added to 20 mL distilled water, room temperature",1.59
same,pH,"5% (w/v) solution, 2.25 mL added to 20 mL distilled water, room temperature",1.56
same,pH,"5% (w/v) solution, 2.50 mL added to 20 mL distilled water, room temperature",1.53
same,pH,"5% (w/v) solution, 2.75 mL added to 20 mL distilled water, room temperature",1.48
same,pH,"5% (w/v) solution, 3.00 mL added to 20 mL distilled water, room temperature",1.45
same,pH,"5% (w/v) solution, 3.25 mL added to 20 mL distilled water, room temperature",1.42
same,pH,"5% (w/v) solution, 3.50 mL added to 20 mL distilled water, room temperature",1.41
same,pH,"5% (w/v) solution, 3.75 mL added to 20 mL distilled water, room temperature",1.38
same,pH,"5% (w/v) solution, 4.00 mL added to 20 mL distilled water, room temperature",1.34
same,pH,"5% (w/v) solution, 4.25 mL added to 20 mL distilled water, room temperature",1.30
same,pH,"5% (w/v) solution, 4.50 mL added to 20 mL distilled water, room temperature",1.28
same,pH,"5% (w/v) solution, 4.75 mL added to 20 mL distilled water, room temperature",1.26
same,pH,"5% (w/v) solution, 5.00 mL added to 20 mL distilled water, room temperature",1.25
same,pH,"10% (w/v) solution, 0.1 mL added to 20 mL distilled water, room temperature",2.74
same,pH,"10% (w/v) solution, 0.2 mL added to 20 mL distilled water, room temperature",2.48
same,pH,"10% (w/v) solution, 0.3 mL added to 20 mL distilled water, room temperature",2.33
same,pH,"10% (w/v) solution, 0.4 mL added to 20 mL distilled water, room temperature",2.22
same,pH,"10% (w/v) solution, 0.5 mL added to 20 mL distilled water, room temperature",2.14
same,pH,"10% (w/v) solution, 0.6 mL added to 20 mL distilled water, room temperature",2.07
same,pH,"10% (w/v) solution, 0.7 mL added to 20 mL distilled water, room temperature",2.00
same,pH,"10% (w/v) solution, 0.8 mL added to 20 mL distilled water, room temperature",1.95
same,pH,"10% (w/v) solution, 0.9 mL added to 20 mL distilled water, room temperature",1.91
same,pH,"10% (w/v) solution, 1.0 mL added to 20 mL distilled water, room temperature",1.86
same,pH,"10% (w/v) solution, 1.1 mL added to 20 mL distilled water, room temperature",1.83
same,pH,"10% (w/v) solution, 1.2 mL added to 20 mL distilled water, room temperature",1.79
same,pH,"10% (w/v) solution, 1.3 mL added to 20 mL distilled water, room temperature",1.76
same,pH,"10% (w/v) solution, 1.4 mL added to 20 mL distilled water, room temperature",1.73
same,pH,"10% (w/v) solution, 1.5 mL added to 20 mL distilled water, room temperature",1.70
same,pH,"10% (w/v) solution, 1.6 mL added to 20 mL distilled water, room temperature",1.67
same,pH,"10% (w/v) solution, 1.7 mL added to 20 mL distilled water, room temperature",1.65
same,pH,"10% (w/v) solution, 1.8 mL added to 20 mL distilled water, room temperature",1.62
same,pH,"10% (w/v) solution, 1.9 mL added to 20 mL distilled water, room temperature",1.60
same,pH,"10% (w/v) solution, 2.0 mL added to 20 mL distilled water, room temperature",1.58
same,asymptotic pH,either 5% or 10% (w/v) acid solution,~1.1±0.1
same,pH,"solutions of at least 2.5% (w/v), according to the tabulated data",no more than 1.25
same,pH of water after addition,"tiny aliquot, less than 1% by volume, of either 5% or 10% (w/v) solution",below 3
